According to ChEMBL document CHEMBL1148165, “A novel amino acid glycoside and three amino acids from Allium sativum” (J Nat Prod, 1993):
The source made the active and inactive calls. No cut-off for these calls is given here.

How the values were obtained:
[1] = test system: Penicillium oxalicum; assay: Antimicrobial activity against Penicillium oxalicum CBS 219.30 at 25 ug; assay type: functional, organism-based
[2] = test system: Micrococcus luteus; assay: Antimicrobial activity against Micrococcus luteus ATCC 9341 at 25 ug; assay type: functional, organism-based
[3] = test system: Bacillus subtilis; assay: Antimicrobial activity against Bacillus subtilis ATCC 6633 at 25 ug; assay type: functional, organism-based
[4] = test system: Escherichia coli; assay: Antimicrobial activity against Escherichia coli ATCC 25922 at 25 ug; assay type: functional, organism-based
[5] = test system: Platelet; assay: Inhibition of collagen-induced platelet aggregation in human platelet-rich plasma at 1 mM by turbidimetric method; assay type: functional; set-up: Activity: scale not given: the % may be the effect or the level left
[6] = test system: Platelet; assay: Inhibition of ADP-induced platelet aggregation in human platelet-rich plasma at 1 mM by turbidimetric method; assay type: functional; set-up: Activity: scale not given: the % may be the effect or the level left
[7] = test system: Platelet; assay: Inhibition of collagen-induced platelet aggregation in human platelet-rich plasma assessed as increase in lag time at 1 mM by turbidimetric method; assay type: functional; set-up: scale not given: the % may be the effect or the level left
[8] = test system: Platelet; assay: Inhibition of epinephrine-induced platelet aggregation in human platelet-rich plasma at 1 mM by turbidimetric method; assay type: functional; set-up: scale not given: the % may be the effect or the level left

Row | Structure (SMILES) | Activity [1] | Activity [2] | Activity [3] | Activity [4] | IC50 ([5]; Homo sapiens, Platelet, Plasma) [µM] | IC50 ([6]; Homo sapiens, Platelet, Plasma) [µM] | Activity [7] [%] | Activity [5] [%] | Activity [6] [%] | Activity [8] [%]
1 | C=CC[S+]([O-])C[C@H](N)C(=O)O (some centres not stated) [ALLIIN] | inactive | inactive | inactive | inactive | 60 | 60 |  |  |  | 
2 | C=CC[S+]([O-])C[C@H](NC[C@@]1(O)OC[C@@H](O)[C@@H](O)[C@@H]1O)C(=O)O (some centres not stated) | inactive | inactive | inactive | inactive |  |  | 50 | 82 | 39.2 | 40.2
3 | C/C=C/[S+]([O-])C[C@H](N)C(=O)O (some centres not stated) | inactive | inactive | inactive | inactive |  |  |  |  |  | 
4 | C[S+]([O-])C[C@H](N)C(=O)O (some centres not stated) | inactive | inactive | inactive | inactive |  |  |  |  |  | 
